Earlier results in patent publication US20190114390A1, “DRUG REPURPOSING BASED ON DEEP EMBEDDINGS OF GENE EXPRESSION PROFILES” (BioAge Labs, Inc., priority 2017, published 2019).

Assays:
imidazole I-2 receptors = conditions: known property
[1] = known property

Row | SMILES | effect upon imidazole I-2 receptors (imidazole I-2 receptors) | effect on glucose levels [1]
1 | CN(C)C(=N)N=C(N)N [Metformin, metformin] | direct inhibitory effect upon imidazole I-2 receptors | lower glucose levels
2 | NC(=O)NC1NC(=O)NC1=O (stereo not shown) [allantoin] | direct inhibitory effect upon imidazole I-2 receptors | lowers glucose levels
